Experimental data taken from US11613552B2, “Pharmaceutical agents, compositions, and methods relating thereto” (Alltech, Inc., priority 2017, dated 2023).

How the values were obtained:
Glut4 = experiment: QRT-PCR of Glut4 mRNA in AML-12 cells; assay type: cell-based, mouse
Protocol: For RNA analysis of basal Glut4 (Slc2a4) expression (in the absence of diabetic stimuli 8-CPT/Dex), amplified AML-12 cells were cultured on 24-well (1×10^5 cells/well) plates overnight in 10% FBS ITS- and Dex-free DMEM/F12 media. These cells were washed twice with PBS to remove residual sera and then were incubated with vehicle (0.024% DMSO) or with Compound #43 (300 ppb) in serum-free DMEM/F12 media for 24 hours.
For RNA analysis of Glut4 expression in AML-12 cells cultured under simulated diabetic conditions, amplified AML-12 cells were cultured on 24-well (2×10^5 cells/well) plates in 10% FBS ITS- and Dex-free DMEM/F12 media overnight. Then these cells were washed twice with PBS to remove any potential residual sera and then were serum-starved in plain DMEM/F12 media overnight. These serum-starved AML-12 cells were then incubated with vehicle (0.024% DMSO) or with Compound #43 (300 ppb) in the presence of diabetic stimuli, 0.1 mM 8-CPT (Sigma) and 0.5 μM Dex, in serum-free plain DMEM/F12 media for 6 and 24 hours.
Total liver RNA from saline- or Compound #43-treated Lepr^db/db mice was isolated using a Qiagen RNAeasy RNA isolation kit according to the Manufacturer's protocol. Total RNA from cultured cells was isolated using Trizol (Invitrogen) according to the manufacturer's protocol, and then incubated with DNase I to remove any potential contaminating genomic DNA. […]

[1] = Serum insulin, ALT and creatinine assays in Lepr^db/db mice; assay type: in vivo, mouse; conditions: 0.136 mg/kg ip daily
Protocol: Male Lepr^db/db mice at 38 days of age were intraperitoneally (ip) injected daily with physiological saline ([…]) containing 0.2% DMSO, and Compound #43 (0.136 mg per kilogram body weight, diluted in sterile physiological saline) for 52 days. Sera from 3-month-old wild-type (non-diabetic) C57 mice were also collected. After the treatments, these serum samples were collected and subjected to insulin, ALT and creatinine assays.
The serum levels of insulin, ALT and creatinine were determined using Themo-Fisher Scientific's Insulin Mouse ELISA kit (Cat #EMINS), Sigma's ALT Activity Assay kit (Cat #MAK052), and Abcam's Creatinine Assay kit (Cat #Ab65340) according to the manufacturer's protocol, respectively.

[2] = tested on: differentiated C2C12 cells; experiment: Glucose uptake in differentiated C2C12 (skeletal muscle) cells; assay type: cell-based, mouse
Protocol: The mouse myoblast C2C12 cells were purchased from the American Type Culture Collection (ATCC, Manassas, Va.). These cells were amplified in DMEM media supplemented with 10% FBS. Equal number of C2C12 cells were then seeded on 96-well plates (5000 cells/well) and cultured in 10% FBS DMEM media at 37° C. for 5 days. Cells were replenished daily with fresh 10% FBS DMEM media. At day 5 of culture, C2C12 cells were differentiated using 0.5% horse serum (Sigma)-containing DMEM media (differentiation media) continuing for 7 days with daily replacement of fresh differentiation media, as previously described (Misu et al, Cell Metabolism 12, 483-495, 2010). At day 7 post-differentiation, differentiated C2C12 cells were rinsed with PBS twice and pretreated without or with 0.006% DMSO (Compound #43 solvent) or Compound #43 (300 or 600 ppb) in serum-free glucose-free DMEM media overnight. Then these cells were washed once with PBS, and then treated without (basal) or with insulin (200 nM), Compound #43 (300 and 600 ppb), or both insulin and Compound #43 in glucose/phenol red-free DMEM media at 37° C. for 1.5 hr. After treatment, media was removed and cells were washed once with PBS and incubated with 1 mM 2-deoxyglucose (2DG) at room temperature for 30 min. […] Luminescent signals were recorded using a Bio-Tek luminometer.

Pdk1/Akt/Foxo1 = experiment: Western blot of Pdk1/Akt/Foxo1 signaling in livers of Lepr^db/db mice; assay type: in vivo, mouse; conditions: 25 μg selenium/kg ip daily, 52 days (FIG. 12)
Protocol: Male Lepr^db/db mice (C57BL/6J strain, purchased from The Jackson Laboratory) at postnatal day 38 were intraperitoneally injected daily with physiological saline ([…]) containing 0.2% DMSO, Compound #43 (25 μg selenium or sulfur equivalent of each compound per kilogram body weight, diluted in sterile physiological saline) for 52 days. After the treatment, livers were collected and stored at −80° C.
Frozen liver tissues were minced in sterile ice-old PBS containing complete proteinase and phosphatase inhibitors (Thermo-Fisher Scientific, Waltham, Mass.) and subjected to homogenization using a tissue homogenizer (Thermo-Fisher Scientific, Waltham, Mass.). These tissue homogenates were diluted in Themo-Fisher's premade RIPA buffer (1 part homogenate/2 part of RIPA buffer) containing complete proteinase/phosphatase inhibitors to extract the proteins. Proteins in the homogenates were extracted in RIPA buffer at 4° C. overnight. These overnight-extracted protein lysates were centrifuged at 12000×g for 30 min at 4° C., and the protein levels in the supernatant of these tissue lysates were determined using the Pierce Micro-BCA protein assay kit (Thermo Scientific-Piece Biotechnology, Rockford, Ill.) according to the manufacturer's protocol.
One hundred micrograms of liver tissue proteins or five micrograms of total proteins from control- and compound(s)-treated HepG2 or AML-12 cells were subjected to SDS-PAGE gel separation and then transferred to PVDF membranes, as described previously (Reddy et al. 2008 Science). Membranes were blocked in a phosphate-buffered saline (PBS) containing 5% (w/v) of bovine serum albumin (Sigma, St. Louis, Mo.) and incubated with specific primary antibodies followed by the incubation with HRP-conjugated anti-mouse or anti-rabbit secondary antibodies (1:5000 dilution, Cell Signaling Inc.). All primary antibodies except Gapdh (Li-COR, Lincoln, Nebr.) were purchased from Cell Signaling Inc. Positive signals on the membrane blots were detected using the Amersham's enhanced chemiluminescence Western Blotting Prime Detection reagents (GE Healthcare Lifescience, Pittsburgh, Pa.). Images of these luminescence signals on the membrane blots were captured using the LI-COR Odyssey Fc Image system (Lincoln, Nebr.). The same membrane blot was stripped and re-blotted with another antibody as described in the GE WB ECL-prime-detection protocol (GE healthcare Lifescience, Pittsburgh, Pa.). Protein band densities in the Western blots were determined using the NIH ImageJ software and then normalized by Gapdh or Actb/ACTB level in each sample. Data are presented as mean±SEM of three samples per each group.

Structure (SMILES): C[Se]C[C@H]1O[C@@H](n2cnc3c(N)ncnc32)C(OC(C)=O)C1OC(C)=O (some centres unmarked) [Compound #43, Adenosine, 5′-Se-methyl-5′-selino-, 2′,3′-diacetate]
- effect on Glut4 mRNA expression (Glut4; 300 ppb with 8-CPT/Dex, 6 and 24 hours (FIG. 16B)): significant increase in Glut4 mRNA expression
- increase of basal Glut4 mRNA expression (Glut4; 300 ppb, serum-free, 24 hours (FIG. 16A)): about 2.1 fold
- decrease of serum insulin levels ([1]; 52 days (FIG. 24A)): about 80%
- serum ALT levels ([1]; 52 days (FIG. 24B)): significant decrease of serum ALT levels
- serum creatinine levels ([1]; 52 days (FIG. 24C)): no significant change in serum creatinine levels
- increase in glucose uptake ([2]; co-treatment insulin 200 nM and Compound #43 300 ppb): 63%
- increase of glucose uptake ([2]; co-treatment insulin 200 nM and Compound #43 600 ppb): 79%
- pAkt (Threonine 308) protein level in liver (Pdk1/Akt/Foxo1): significantly elevated
- pFoxo1 (Serine 256) protein level in liver (Pdk1/Akt/Foxo1): significantly elevated
- pPdk1 protein level in liver (Pdk1/Akt/Foxo1): significantly elevated
- total Akt levels in liver (Pdk1/Akt/Foxo1): no significant change
